In patent US8592486B2, “Compounds for inflammation and immune-related uses” (Synta Pharmaceuticals Corp., priority 2005, dated 2013):
Counter-ions that a name gives are not always drawn. Like-named read-outs stand apart in the source and are kept apart here.

Experiments:
IL-2 production = test: Inhibition of IL-2 production in PHA-activated Jurkat cells (ELISA); format: cell-based, human; settings: Homo sapiens, Jurkat cells, PHA 2.5 μg/mL, 20 hours, IL-2 ELISA, read-out: IC50 (inhibition of IL-2 production)
Description: Jurkat cells were placed in a 96 well plate (0.5 million cells per well in 1% FBS medium) then a test compound of this invention was added at different concentrations. After 10 minutes, the cells were activated with PHA (final concentration 2.5 μg/mL) and incubated for 20 hours at 37° C. under CO2. The final volume was 200 μL. Following incubation, the cells were centrifuged and the supernatants collected and stored at −70° C. prior to assaying for IL-2 production. A commercial ELISA kit (IL-2 Eli-pair, Diaclone Research, Besancon, France) was used to detect production of IL-2, from which dose response curves were obtained. The IC50 value was calculated as the concentration at which 50% of maximum IL-2 production after stimulation was inhibited versus a non-stimulation control.

[1] = test system: degranulation in RBL cells; test: Inhibition of degranulation in RBL cells; format: cell-based; settings: Rattus norvegicus, anti-DNP IgE, read-out: IC50 (concentration which inhibits 50% of degranulation in RBL cells)
Description: The day before the assay was performed, RBL cells, that had been grown to confluence in a 96 well plate, were incubated at 37° C. for at least 2 hours. The medium was replaced in each well with 100 μL of fresh medium containing […] of anti-DNP IgE.
On the following day, the cells were washed once with PRS (2.6 mM glucose and 0.1% BSA) and 160 μL of PRS was added to each well. A test compound was added to a well in a 20 μL solution at 10× of the desired concentration and incubated for 20 to 40 minutes at 37° C. 20 μL of 10× mouse anti-IgE ([…]) was added. Maximum degranulation occurred between 15 to 40 minutes after addition of anti-IgE.

Compound | IC50 (IL-2 production; Jurkat, 20 h) | further results
Cc1cnccc1C(=O)Nc1ccc(-c2cc(-c3nccs3)ccc2C)cc1 [Compound 9, 3-Methyl-N-(2′-methyl-5′-thiazol-2-yl-biphenyl-4-yl)-isonicotinamide, HCl salt] | 7 nM | IC50 [1]: 1410 nM
COc1ncc(Cl)cc1-c1ccc(NC(=O)c2c(F)cccc2F)cc1 [Compound 5, N-[4-(5-Chloro-2-methoxy-pyridin-3-yl)-phenyl]-2,6-difluoro-benzamide] | 1 nM | IC50 [1]: 1100 nM
Cc1ccc(-c2nnn[nH]2)cc1-c1ccc(NC(=O)c2c(F)cccc2F)cc1 [Compound 6, 2,6-Difluoro-N-[2′-methyl-5′-(1H-tetrazol-5-yl)-biphenyl-4-yl]-benzamide] | 9 nM | IC50 [1]: 5010 nM
COc1ccc(CCCOC(Cn2ccnc2)c2ccc(OC)cc2)cc1 (stereo not shown) [SKF96365, reference compound] |  | IC50 ([1]; RBL): > 20000 nM
Cc1ccc(-c2cocn2)cc1-c1ccc(NC(=O)c2c(F)cccc2F)cc1 [Compound 77, 2,6-Difluoro-N-[2′-methyl-5′-(oxazol-4-yl)-biphenyl-4-yl]-benzamide] | 10 nM | 
Cc1ccc(-c2ccc[nH]2)cc1-c1ccc(NC(=O)c2c(F)cccc2F)cc1 [Compound 41, 2,6-Difluoro-N-[2′-methyl-5′-(1H-pyrrol-2-yl)-biphenyl-4-yl]-benzamide] | 18 nM | 
Cc1ccc(-c2nccs2)cc1-c1ccc(NC(=O)c2c(F)cncc2F)cc1 [Compound 28, 3,5-Difluoro-N-[5′-(thiazol-2-yl)-2′-methyl-biphenyl-4-yl]-isonicotinamide] | 7 nM | 
CSc1nnc(-c2ccc(C)c(-c3ccc(NC(=O)c4c(F)cncc4F)cc3)c2)n1C [Compound 75, 3,5-Difluoro-N-[2′-methyl-5′-(4-methyl-5-methylsulfanyl-4H-[1,2,4]triazol-3-yl)-biphenyl-4-yl]-isonicotinamide] | > 1000 nM | 
Cc1ccc(-c2cccnc2)cc1-c1ccc(NC(=O)c2c(F)cccc2F)cc1 [Compound 22, 2,6-Difluoro-N-[2′-methyl-5′-(pyridine-3-yl)-biphenyl-4-yl]-benzamide] | 1 nM | 
CSc1nnc(-c2ccc(C)c(-c3ccc(NC(=O)c4ccncc4F)cc3)c2)n1C [Compound 73, 3-Fluoro-N-[2′-methyl-5′-(4-methyl-5-methylsulfanyl-4H-[1,2,4]triazol-3-yl)-biphenyl-4-yl]-isonicotinamide] | > 1000 nM | 
Cc1csc(-c2ccc(C)c(-c3ccc(NC(=O)c4c(F)cccc4F)cc3)c2)n1 [Compound 38, 2,6-Difluoro-N-[2′-methyl-5′-(4-methyl-thiazol-2-yl)-biphenyl-4-yl]-benzamide] | 3 nM | 
Cc1cnccc1C(=O)Nc1ccc(-c2cc(-c3cnco3)ccc2C)cc1 [Compound 26, 3-Methyl-N-[5′-(oxazol-5-yl)-2′-methyl-biphenyl-4-yl]-isonicotinamide] | 5 nM | 
Cc1cc(-c2ccc(C)c(-c3ccc(NC(=O)c4ccncc4C)cc3)c2)on1 [Compound 36, 3-Methyl-N-[5′-(3-methyl-isoxazol-5-yl)-2′-methyl-biphenyl-4-yl]-isonicotinamide] | 4 nM | 
CSc1nnc(-c2ccc(C)c(-c3ccc(NC(=O)c4ccncc4C)cc3)c2)n1C [Compound 74, 3-Methyl-N-[2′-methyl-5′-(4-methyl-5-methylsulfanyl-4H-[1,2,4]triazol-3-yl)-biphenyl-4-yl]-isonicotinamide] | > 1000 nM | 
Cc1ccc(-c2nccs2)cc1-c1ccc(NC(=O)c2snnc2C)cc1 [Compound 76, 4-Methyl-[1,2,3]thiadazole-5-carboxylic acid [2′-methyl-5′-(thiazol-2-yl)-biphenyl-4-yl]-amide] | 7 nM | 
Cc1ccc(-c2ncco2)cc1-c1ccc(NC(=O)c2c(F)cncc2F)cc1 [Compound 11, 3,5-Difluoro-N-(2′-methyl-5′-oxazol-2-yl-biphenyl-4-yl)-isonicotinamide] | 3 nM | 

Compound | IC50 (IL-2 production; Jurkat, 20 h) | further results
O=C(Nc1ccc(-c2cc(-c3nccs3)ccc2Cl)cc1)c1c(F)cccc1F [Compound 56, 2,6-Difluoro-N-[2′-chloro-5′-(thiazol-2-yl)-biphenyl-4-yl]-benzamide] | 2 nM | 
Cc1cnccc1C(=O)Nc1ccc(-c2cc(-c3cnco3)ccc2C)cc1 [Compound 29, 3-Methyl-N-[5′-(oxazol-5-yl)-2′-methyl-biphenyl-4-yl]-isonicotinamide, HCl salt] |  | IC50 (IL-2 production): 9 nM
Cc1cnccc1C(=O)Nc1ccc(-c2cc(-c3ccno3)ccc2C)cc1 [Compound 32, 3-Methyl-N-[5′-(isoxazol-5-yl)-2′-methyl-biphenyl-4-yl]-isonicotinamide] | 4 nM | 
COc1ncc(Cl)cc1-c1ccc(NC(=O)c2ccncc2F)cc1 [Compound 19, 3-Fluoro-N-[4-(5-chloro-2-methoxy-pyridin-3-yl)-phenyl]-isonicotinamide] | 19 nM | 
Cc1ccc(-c2nnco2)cc1-c1ccc(NC(=O)c2ccncc2F)cc1 [Compound 71, 3-Fluoro-N-[2′-methyl-5′-([1,3,4]oxadiazol-2-yl)-biphenyl-4-yl]-isonicotinamide] | 6 nM | 
O=C(Nc1ccc(-c2cc(-c3nccs3)ccc2Cl)cc1)c1ccncc1F [Compound 58, 3-Fluoro-N-[5′-(thiazol-2-yl)-2′-chloro-biphenyl-4-yl]-isonicotinamide] | 2 nM | 
Cc1ccc(-c2nnco2)cc1-c1ccc(NC(=O)c2c(F)cccc2F)cc1 [Compound 69, 2,6-Difluoro-N-[2′-methyl-5′-([1,3,4]oxadiazol-2-yl)-biphenyl-4-yl]-benzamide] | 5 nM | 
Cc1ccc(-c2nccs2)cc1-c1ccc(NC(=O)c2ccncc2F)cc1 [Compound 54, 3-Fluoro-N-[5′-(thiazol-2-yl)-2′-methyl-biphenyl-4-yl]-isonicotinamide] | 12 nM | 
Cc1ccc(-c2ncnn2C)cc1-c1ccc(NC(=O)c2ccncc2F)cc1 [Compound 67, 3-Fluoro-N-[2′-methyl-5′-(2-methyl-2H-[1,2,4]triazol-3-yl)-biphenyl-4-yl]-isonicotinamide] | 27 nM | 
Cc1ccc(-c2ccno2)cc1-c1ccc(NC(=O)c2snnc2C)cc1 [Compound 33, 4-Methyl-[1,2,3]thiadazole-5-carboxylic acid [2′-methyl-5′-(isoxazol-5-yl)-biphenyl-4-yl]-amide] | 4 nM | 
Cc1cnccc1C(=O)Nc1ccc(-c2cc(-c3nnco3)ccc2C)cc1 [Compound 70, 3-Methyl-N-[2′-methyl-5′-([1,3,4]oxadiazol-2-yl)-biphenyl-4-yl]-isonicotinamide] | 13 nM | 
Cc1cc(-c2ccc(C)c(-c3ccc(NC(=O)c4c(F)cccc4F)cc3)c2)[nH]n1 [Compound 37, 2,6-Difluoro-N-[2′-methyl-5′-(3-methyl-1H-pyrazol-5-yl)-biphenyl-4-yl]-benzamide] | 11 nM | 
Cc1ccc(-c2ncco2)cc1-c1ccc(NC(=O)c2ccncc2F)cc1 [Compound 10, 3-Fluoro-N-(2′-methyl-5′-oxazol-2-yl-biphenyl-4-yl)-isonicotinamide] | 3 nM | 
COc1ncc(Cl)cc1-c1ccc(NC(=O)c2ccncc2C)cc1 [Compound 18, 3-Methyl-N-[4-(5-chloro-2-methoxy-pyridin-3-yl)-phenyl]-isonicotinamide] | 9 nM | 
Cc1cnccc1C(=O)Nc1ccc(-c2cc(-c3ncco3)ccc2Cl)cc1 [Compound 17, 3-Methyl-N-(2′-chloro-5′-oxazol-2-yl-biphenyl-4-yl)-isonicotin-amide, hydrochloride] | 7 nM | 
